Measurements from the supplement of paper PMC8024199.
± gives the standard deviation of the averaged measurements.

Experiments:
Experiment in all cases: drug sensitivity score (DSS) (DSS score); higher = more sensitive (stronger growth inhibition); extreme values may be limits of the assay
[1] = system: Ba/F3 P210-BCR-ABL1 RUNX1-/- (mouse)
How it was run: (§1)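 Mouse Ba/F3 cells carrying P210-BCR-ABL1, CRISPR/Cas9-edited at runx1 exon 4 or edited-control clones, were screened against a 528-compound library on pre-printed 384-well plates. Each compound ran at five concentrations spanning a 10,000-fold range, with 10,000 cells per well in RPMI with 10% FBS for 72 h at 37 °C and 5% CO2. CellTiter-Glo luminescence was scaled between vehicle and positive-control wells. A drug sensitivity score summarised each dose-response, averaged over two replicates.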

[2] = system: Ba/F3 P210-BCR-ABL1 RUNX1-/mut (mouse)
How it was run: as §1

[3] = system: Ba/F3 P210-BCR-ABL1 RUNX1wt/wt control (mouse)
How it was run: as §1

SMILES | drug sensitivity score [1] | drug sensitivity score [2] | drug sensitivity score [3]
CC(C)N(C[C@H]1O[C@@H](n2cnc3c(N)ncnc32)[C@H](O)[C@@H]1O)[C@H]1C[C@@H](CCc2nc3cc(C(C)(C)C)ccc3[nH]2)C1 [Pinometostat] | 0 | 0 | 0
Cc1ccc(=O)n(-c2ccccc2)c1 [Pirfenidone] | 0 | 0 | 0
NCCNc1ccc(NCCN)c2c1C(=O)c1ccncc1C2=O [Pixantrone] | 1.95 ± 1.3 | 2.45 ± 1.1 | 0
c1cc(CN2CCCNCCNCCCNCC2)ccc1CN1CCCNCCNCCCNCC1 [Plerixafor] | 0.05 ± 0.071 | 0.05 ± 0.071 | 0
Nc1cccc2c1C(=O)N(C1CCC(=O)NC1=O)C2=O (stereo not given) [Pomalidomide] | 0 | 0 | 0
Cc1ccc(C(=O)Nc2ccc(CN3CCN(C)CC3)c(C(F)(F)F)c2)cc1C#Cc1cnc2cccnn12 [Ponatinib] | 36.2 ± 2.4 | 31.6 ± 0.28 | 30.2 ± 0.57
C=CC(=O)N1CCC(Oc2cc3c(Nc4ccc(Cl)c(Cl)c4F)ncnc3cc2OC)CC1 [Poziotinib] | 0 | 0 | 0
CCCCc1nc2cc(/C=C/C(=O)NO)ccc2n1CCN(CC)CC [Pracinostat] | 20.7 ± 0.57 | 19.4 ± 0.35 | 17.4 ± 0.49
CC[C@H](C)C(=O)O[C@H]1C[C@H](O)C=C2C=C[C@H](C)[C@H](CC[C@@H](O)C[C@@H](O)CC(=O)O)[C@H]21 [Pravastatin] | 0.1 ± 0.14 | 0 | 0.1 ± 0.14
COc1cccc(OCCCN)c1-c1cc(Nc2cnc(C#N)cn2)n[nH]1 [Prexasertib] | 32.5 ± 2.5 | 31.4 | 30.4 ± 1.3
Cn1cc(CNCC2CCN(c3ncc(C(=O)NO)cn3)CC2)c2ccccc21 [Quisinostat] | 21.6 ± 1.3 | 17.95 ± 0.071 | 15.3 ± 0.28
Nc1cc(F)ccc1NC(=O)/C=C/c1cnn(C/C=C/c2ccccc2)c1 [RGFP966] | 4.8 ± 1.1 | 4.25 ± 0.78 | 1.3 ± 0.28
COC(=O)c1ccc([C@H]2c3[nH]c4ccccc4c3C[C@H](C(=O)OC)N2C(=O)CCl)cc1 [RSL3] | 0 | 0.3 ± 0.42 | 0
Cc1cnc(NC(=O)Nc2cc(Br)c(C)cc2OC[C@@H]2CNCCO2)cn1 [Rabusertib] | 3.25 ± 1.6 | 3.3 ± 0.14 | 0.45 ± 0.49
Cc1cn(-c2cc(NC(=O)c3ccc(C)c(Nc4nccc(-c5cnccn5)n4)c3)cc(C(F)(F)F)c2)cn1 [Radotinib] | 28.9 ± 8.2 | 30.9 ± 0.64 | 27.9 ± 0.14
CC(C)(C)Cn1c(N)nc2ccc(-c3[nH]c(C(C)(C)C)nc3-c3ccc(F)cc3)nc21 [Ralimetinib] | 9.6 ± 3.2 | 8 ± 4.2 | 0.7 ± 0.99
O=C(c1ccc(OCCN2CCCCC2)cc1)c1c(-c2ccc(O)cc2)sc2cc(O)ccc12 [Raloxifene] | 5.4 ± 2.3 | 5.05 ± 3.3 | 3.7 ± 1.8
Cc1nc(=O)c2cc(CN(C)c3ccc(C(=O)N[C@@H](CCC(=O)O)C(=O)O)s3)ccc2[nH]1 [Raltitrexed] | 23.4 ± 2.2 | 20.3 ± 0.28 | 17.4 ± 0.57
Cn1nccc1Nc1nccc(-c2ccn([C@H](CO)c3ccc(Cl)c(F)c3)c(=O)c2)n1 [Ravoxertinib] | 2.75 ± 2.6 | 1.3 ± 1.8 | 0.05 ± 0.071
CCOC(=O)C1=CCCC[C@H]1S(=O)(=O)Nc1ccc(F)cc1Cl [Resatorvid] | 0 | 0 | 0
CCOCc1nc2c(N)nc3ccccc3c2n1CC(C)(C)O [Resiquimod] | 3.6 | 3.6 ± 5.1 | 0.15 ± 0.21
CN(C)Cc1ccc(S(=O)(=O)n2ccc(/C=C/C(=O)NO)c2)cc1 [Resminostat] | 15.8 ± 0.78 | 15.2 ± 0.92 | 13.1 ± 0.57
CN(C)C(=O)c1cc2cnc(Nc3ccc(N4CCNCC4)cn3)nc2n1C1CCCC1 [Ribociclib] | 4.6 ± 2.3 | 1.85 ± 2.5 | 0

SMILES | drug sensitivity score [1] | drug sensitivity score [2] | drug sensitivity score [3]
CO[C@H]1C[C@@H]2CC[C@@H](C)[C@@](O)(O2)C(=O)C(=O)N2CCCC[C@H]2C(=O)O[C@H]([C@H](C)C[C@@H]2CC[C@@H](OP(C)(C)=O)[C@H](OC)C2)CC(=O)[C@H](C)/C=C(\C)[C@@H](O)[C@@H](OC)C(=O)[C@H](C)C[C@H](C)/C=C/C=C/C=C/1C [Ridaforolimus] | 13.3 ± 3.8 | 15.7 ± 2.7 | 0.15 ± 0.21
COc1cc(OC)c(/C=C/S(=O)(=O)Cc2ccc(OC)c(NCC(=O)O)c2)c(OC)c1 [Rigosertib] | 26.8 ± 1.1 | 27.05 ± 0.071 | 15.6 ± 1.4
C[C@H]1CNCCCN1S(=O)(=O)c1cccc2cncc(F)c12 [Ripasudil] | 0 | 0 | 0
C=CC(=O)Nc1cccc(Nc2nc(Nc3ccc(N4CCN(C(C)=O)CC4)cc3OC)ncc2C(F)(F)F)c1 [Rociletinib] | 8.6 ± 1.6 | 7.45 ± 0.071 | 4.4 ± 0.42
O=C(CCCCCCNC(=O)c1cnc(N(c2ccccc2)c2ccccc2)nc1)NO [Rocilinostat] | 10.2 ± 1.5 | 9.05 ± 2.2 | 6.25 ± 0.071
C/C=C1\NC(=O)[C@H]2CSSCC/C=C/[C@H](CC(=O)N[C@H](C(C)C)C(=O)N2)OC(=O)[C@H](C(C)C)NC1=O [Romidepsin] | 29.85 ± 0.071 | 27.6 ± 2.7 | 29.4 ± 0.42
Cc1nc(C(=O)NCC(=O)O)c(O)c2ccc(Oc3ccccc3)cc12 [Roxadustat] | 0.6 ± 0.85 | 0.95 ± 1.3 | 0
CN(C)C[C@@H]1CCn2cc(c3ccccc32)C2=C(C(=O)NC2=O)c2cn(c3ccccc23)CCO1 [Ruboxistaurin] | 9.7 ± 0.28 | 9.25 ± 2.2 | 7.7 ± 0.99
N#CC[C@H](C1CCCC1)n1cc(-c2ncnc3[nH]ccc23)cn1 [Ruxolitinib] | 2.2 ± 0.71 | 1.45 ± 2 | 0
CC(C)N(CCCNC(=O)Nc1ccc(C(C)(C)C)cc1)C[C@H]1O[C@@H](n2cc(Br)c3c(N)ncnc32)[C@H](O)[C@@H]1O [SGC0946] | 3.45 ± 2.3 | 3.7 ± 5.2 | 0
COc1ccc(CCc2nc3cc(-c4c(C)noc4C)ccc3n2C[C@H](C)N2CCOCC2)cc1Cl [SGC-CBP30] | 10.2 ± 2.8 | 12.7 ± 4.6 | 5.5 ± 0.28
CN1CCC(CNc2ccc3ncc(-c4cccc(OC(F)(F)F)c4)n3n2)CC1 [SGI-1776] | 10.1 ± 0.71 | 9.65 ± 2.2 | 5.2 ± 0.14
CN(CC(=O)N(Cc1ccc(C2CCCCC2)cc1)c1ccc(C(=O)O)cc1)S(=O)(=O)c1c(F)c(F)c(F)c(F)c1F [SH-4-54] | 8.95 ± 1.1 | 8.35 ± 5.2 | 5.1 ± 0.14
CCc1c2c(nc3ccc(O)cc13)-c1cc3c(c(=O)n1C2)COC(=O)[C@]3(O)CC [SN-38] | 33.2 ± 0.99 | 29.1 ± 1.8 | 26.9 ± 0.42
Cc1cc2c(C(=O)NC[C@H](C)c3ccccc3)c(O)c(O)cc2c(O)c1-c1c(C)cc2c(C(=O)NC[C@H](C)c3ccccc3)c(O)c(O)cc2c1O [Sabutoclax] | 21.8 ± 6.7 | 23.5 ± 7.5 | 19.1 ± 0.49
CC[C@@H](C(=O)[C@@H](C)[C@@H](O)[C@H](C)[C@@H]1O[C@@H]([C@@H](CC)C(=O)O)CC[C@@H]1C)[C@H]1O[C@]2(C=C[C@@H](O)[C@]3(CC[C@@](C)([C@H]4CC[C@](O)(CC)[C@H](C)O4)O3)O2)[C@H](C)C[C@@H]1C [Salinomycin] | 19.6 ± 7.6 | 17.6 ± 10 | 17 ± 8.3
CC(C)n1nc(-c2ccc3oc(N)nc3c2)c2c(N)ncnc21 [Sapanisertib] | 16.9 ± 0.35 | 16.6 ± 2.5 | 11.3 ± 0.49
CNC(=O)CN1CCC(Oc2cc3c(Nc4cccc(Cl)c4F)ncnc3cc2OC)CC1 [Sapitinib] | 0.35 ± 0.49 | 0 | 0
CC1=C2C[C@H]3[C@@H](CC[C@@H]4C[C@H](NS(C)(=O)=O)CC[C@@]43C)[C@@H]2CC[C@@]2(C1)O[C@@H]1C[C@H](C)CN[C@H]1[C@H]2C [Saridegib] | 2.3 ± 0.28 | 2.15 ± 3 | 0
CC[C@H](CO)Nc1nc(NCc2ccccc2)c2ncn(C(C)C)c2n1 [Seliciclib] | 1.3 ± 0.14 | 0.4 ± 0.57 | 0
O=C(/C=C\n1cnc(-c2cc(C(F)(F)F)cc(C(F)(F)F)c2)n1)NNc1cnccn1 [Selinexor] | 24 ± 1.7 | 23 ± 0.99 | 16.55 ± 0.071
Cc1cc(F)c(C(=O)Nc2cccc(-c3nncn3C(C)C)n2)cc1-n1cnc(C2CC2)c1 [Selonsertib] | 0 | 0 | 0
